One data set deals with T1, Human PPARδ (Homo sapiens, UniProt Q03181).
T1 construct: (PPARδ amino acid 128 to C-terminus); expressed in transfected cells; host or cells: CV-1 cells
T1 sequence (Q03181 128-441 limits assumed): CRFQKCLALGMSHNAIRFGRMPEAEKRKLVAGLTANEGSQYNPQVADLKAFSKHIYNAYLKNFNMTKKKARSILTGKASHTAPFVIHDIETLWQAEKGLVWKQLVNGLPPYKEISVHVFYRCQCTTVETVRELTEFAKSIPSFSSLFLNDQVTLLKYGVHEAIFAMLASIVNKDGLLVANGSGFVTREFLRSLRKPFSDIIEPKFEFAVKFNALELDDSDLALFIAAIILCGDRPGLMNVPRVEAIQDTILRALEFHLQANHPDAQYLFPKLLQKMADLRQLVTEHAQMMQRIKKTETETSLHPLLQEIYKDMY
In words: PPARδ activity screen (GAL4-PPARδ LBD luciferase transactivation in CV-1 cells). In kind it is cell-based. The note with it: 24 h compound treatment, luciferase reporter. The procedure: CV-1 cells were grown in DMEM+10% charcoal stripped FCS. Cells were seeded into 384-well plates the day before transfection to give a confluency of 50-80% at transfection. A total of […] containing 0.64 micrograms pCMX-PPARDelta LBD, 0.1 micrograms pCMXβGal, 0.08 micrograms pGLMH2004 reporter and 0.02 micrograms pCMX empty vector was transfected per well using FuGene transfection reagent according to the manufacturer's instructions (Roche). Cells were allowed to express protein for 48 h followed by addition of compound.
Human PPARδ was used to PCR amplify the PPARδ LBD. […] Ensuing fusions were verified by sequencing.
All compounds were dissolved in DMSO and diluted 1:1000 upon addition to the cells. Compounds were tested in quadruple in concentrations ranging from 0.001 to 100 μM. Cells were treated with compound for 24 h followed by luciferase assay. […]
Medium including test compound was aspirated and washed with PBS. […] Light emission was quantified by counting on a Perkin Elmer Envision reader. […] Beta-galactosidase assays were performed in the microwell plates using a kit from Promega and read in a Perkin Elmer Envision reader. […]
The activity of a compound is calculated as fold induction compared to an untreated sample. […] EC50 values were calculated via non-linear regression using GraphPad PRISM (GraphPad Software, San Diego, Calif.).

In a further data set the target is T2, hERG (Homo sapiens, UniProt Q12809).
T2 construct: expressed in transfected cells
T2 sequence (Q12809 whole entry): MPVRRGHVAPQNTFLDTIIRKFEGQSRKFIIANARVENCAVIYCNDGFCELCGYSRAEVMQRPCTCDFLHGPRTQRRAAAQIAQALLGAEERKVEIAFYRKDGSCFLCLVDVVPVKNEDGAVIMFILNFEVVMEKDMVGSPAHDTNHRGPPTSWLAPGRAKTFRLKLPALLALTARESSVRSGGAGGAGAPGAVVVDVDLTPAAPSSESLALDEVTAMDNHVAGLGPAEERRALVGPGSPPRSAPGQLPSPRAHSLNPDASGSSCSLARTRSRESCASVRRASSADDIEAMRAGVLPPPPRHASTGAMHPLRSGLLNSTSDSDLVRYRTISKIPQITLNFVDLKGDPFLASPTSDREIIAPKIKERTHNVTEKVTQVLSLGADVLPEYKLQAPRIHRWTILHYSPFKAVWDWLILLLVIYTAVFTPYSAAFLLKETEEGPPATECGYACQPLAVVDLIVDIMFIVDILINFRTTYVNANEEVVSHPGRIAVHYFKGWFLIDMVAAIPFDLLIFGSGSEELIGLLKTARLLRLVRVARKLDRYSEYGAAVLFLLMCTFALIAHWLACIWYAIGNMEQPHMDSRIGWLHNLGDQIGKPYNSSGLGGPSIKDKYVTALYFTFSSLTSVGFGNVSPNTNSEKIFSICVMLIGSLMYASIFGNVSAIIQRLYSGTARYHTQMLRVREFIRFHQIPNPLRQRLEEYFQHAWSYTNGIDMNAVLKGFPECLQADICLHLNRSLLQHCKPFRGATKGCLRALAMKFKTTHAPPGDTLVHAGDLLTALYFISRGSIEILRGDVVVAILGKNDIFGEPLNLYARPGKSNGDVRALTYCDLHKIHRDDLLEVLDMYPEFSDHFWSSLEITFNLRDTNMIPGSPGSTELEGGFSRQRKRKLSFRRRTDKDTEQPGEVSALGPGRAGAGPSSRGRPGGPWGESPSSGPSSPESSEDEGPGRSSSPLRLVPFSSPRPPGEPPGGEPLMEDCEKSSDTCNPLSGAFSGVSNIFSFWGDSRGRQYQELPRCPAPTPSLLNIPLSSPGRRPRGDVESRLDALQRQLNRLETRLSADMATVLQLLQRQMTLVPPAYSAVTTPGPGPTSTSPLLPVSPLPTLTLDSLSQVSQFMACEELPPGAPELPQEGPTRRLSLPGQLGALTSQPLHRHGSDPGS
Put plainly: hERG inhibition screen (patch clamp, peak hERG tail current). In kind it is cell-based. As to conditions: human. The procedure: Cells were cultured in DMEM/F-12 medium supplemented with 10% fetal bovine serum and 400 μg/mL Geneticin. Cells were grown in 75 cm tissue culture flasks maintained at 37° C. with 5% CO2 and passaged every 3 days using 0.05/0.02% Trypsin/EDTA (confluency of <80%). For the purpose of electrophysiology, cells were seeded in 25 cm2 tissue culture flasks. Three day old cells were harvested using Trypsin/EDTA (0.025/0.01%) as detaching agent and resuspended in external recording solution.
Preweighed quantity of test item was dissolved in tissue culture grade DMSO to prepare a primary stock solution. The strength of the primary stock was 1000× of the intended highest test concentration. Subsequently, working stock solutions of appropriate strengths was prepared by dilution of primary stock with DMSO. The stock solutions were aliquoted into eppendorff tubes and stored at −20° C. freezer (<0° C.) until use. On the day of experiment, aliquots were thawed and used for preparing the assay solution (test solution).
Test solutions were prepared fresh by adding 4 μL of stock solution in to 3996 μL external recording solution such that the final DMSO concentration in the assay solution was 0.1% v/v. Upon addition, solution was inspected carefully against light by naked eye for any indications of precipitation.
Electrophysiological Procedures: • Electrophysiology Setup: Instrument: Port-A-Patch • Patch clamp type: Semiautomatic • Manufacturer: Nanion technologies, GmBH Germany • Electrophysiology chips: Glasscoated NPC-1 chips • Recording Condition: Room temperature • Compound Addition Protocol: Manual addition—20 μL of solution was added on one side of the chip, followed by withdrawal of 20 μL from the other side. This way of addition and withdrawal was repeated at least 4-5 times to ensure actual test concentration is reached. • Test Concentration Exposure Period: Cells were exposed to each test concentration for 3 min or till a steady state block was reached • Voltage Protocol: −40 mV subtraction pulse for 0.5 sec; +40 mV activation pre-pulse for 2 sec; −40 mV test pulse for 2 sec and −80 mV holding potential repeated at every 10 sec • Assay end point: Peak hERG tail current recorded when the voltage was reduced from +40 mV to −40 mV.
The steady state current after the application of 0.1% DMSO was considered as baseline (control current). Steady state current obtained at the end of each test concentration addition was used to calculate the % hERG current inhibited at each concentration. Any rundown due to vehicle addition was corrected to calculate % hERG current inhibition. Each cell acted as its own control. Average current of last 3-5 sweeps of acceptable quality was considered for calculation of % inhibition. Sweeps with artifacts and noise were omitted while calculation.

Data set [1] can be described thus: Pharmacokinetic screening in male CD-1 mice. In kind it is in vivo. As to conditions: mouse. The procedure:
(§1) In this example, the PK profile of several PPARδ agonists disclosed herein in male CD-1 mice or Wistar rats was determined by the methods disclosed in Boxenbaum H. (1980) Interspecies variation in liver weight, hepatic blood flow and antipyrine intrinsic clearance in extrapolation of Benzodiazepines and phenytoin. J. Pharmacokinet Biopharm 8: 165-176. Similar methods can be used to analyze other compounds provided herein.
(§2) All compounds were separately administered to CD-1 mice at 1 mg/kg iv or 3 mg/kg po. The compounds were separately administered to male Wistar rats 1 mg/kg iv or 3 mg/kg po. The species M refers to mouse and R reports to rat in the following table. NA means not available.

The nature of data set [2]: Pharmacokinetic screening in male Wistar rats. As to conditions: in vivo, rat. The procedure: as §1, §2

In the case of `C[C@H](CCCOc1ccccc1Cn1c(C(F)(F)F)cnc1-c1ccc(F)cc1)CC(=O)O` [Compound 2e, (3R)-6-(2-((2-(4-fluorophenyl)-5-(trifluoromethyl)-1H-imidazol-1-yl)methyl)phenoxy)-3-methylhexanoic acid], the EC50 at Human PPARδ stood at 25 nM. That is a double-digit nanomolar value.

`O=C(O)CCCCCOc1ccccc1Cn1c(C(F)(F)F)cnc1-c1ccc(-c2ccco2)cc1` [Compound 2h, 6-(2-((2-(4-(furan-2-yl)phenyl)-5-(trifluoromethyl)-1H-imidazol-1-yl)methyl)phenoxy)hexanoic acid]: the EC50 at Human PPARδ was determined as 2 nM. On hERG, the inhibition at 10 µM stood at 7%.

In the case of `C[C@H](CCCOc1ccccc1Cn1c(C(F)(F)F)cnc1-c1ccc(C#N)cc1)CC(=O)O` [Compound 2f, (R)-6-(2-((2-(4-cyanophenyl)-5-(trifluoromethyl)-1H-imidazol-1-yl)methyl)phenoxy)-3-methylhexanoic acid], the inhibition at 10 µM at hERG was determined as 3.5%. Further, the AUC(0-inf) in data set [1] (male, CD-1, in vivo, 1 mg/kg, 1.0 mpk iv, read-out: IV PK AUC (0-inf)) was 6730 ng·h/mL; in data set [1] (male, CD-1, in vivo, 3 mg/kg, 3.0 mpk po, read-out: Oral PK AUC (0-inf)), 14700 ng·h/mL; in data set [2] (1 mg/kg, 1.0 mpk iv, read-out: IV PK AUC (0-inf)) it was 4090 ng·h/mL; in data set [2] (3 mg/kg, 3.0 mpk po, read-out: Oral PK AUC (0-inf)), 14900 ng·h/mL. Further, the half-life was 4.1 h in data set [1] (male, CD-1, in vivo, 1 mg/kg, 1.0 mpk iv, read-out: IV PK Beta T½ (converted)); 4.9 h in data set [1] (male, CD-1, in vivo, 3 mg/kg, 3.0 mpk po, read-out: Oral PK T½ (converted)); 10.3 h in data set [2] (3 mg/kg, 3.0 mpk po, read-out: Oral PK T½ (converted)). The C0 amounted to 2450 ng/mL in data set [1] (male, CD-1, in vivo, 1 mg/kg, 1.0 mpk iv, read-out: IV PK C0) and 1820 ng/mL in data set [2] (1 mg/kg, 1.0 mpk iv, read-out: IV PK C0). Moreover, the Vd in data set [1] (male, CD-1, in vivo, 1 mg/kg, 1.0 mpk iv, read-out: IV PK Vss) worked out at 0.6 L/kg; in data set [2] (1 mg/kg, 1.0 mpk iv, read-out: IV PK Vss), 3.9 L/kg. The Cmax is 4240 ng/mL in data set [1] (male, CD-1, in vivo, 3 mg/kg, 3.0 mpk po, read-out: Oral PK Cmax) and 4330 ng/mL in data set [2] (3 mg/kg, 3.0 mpk po, read-out: Oral PK Cmax). In addition, the Tmax worked out at 0.3 h in data set [1] (male, CD-1, in vivo, 3 mg/kg, 3.0 mpk po, read-out: Oral PK T max) and 0.3 h in data set [2] (3 mg/kg, 3.0 mpk po, read-out: Oral PK T max). Besides, the “IV PK Cl” value in data set [1] (1.0 mpk iv) was 2.5 mL/min/kg. The “Oral PK % F” value in data set [1] (3.0 mpk po vs 1.0 mpk iv) is 73%. The clearance in data set [2] (1 mg/kg, 1.0 mpk iv, read-out: IV PK Cl) turned out to be 3 mL/min/kg. In data set [2] (3 mg/kg, 3.0 mpk po vs 1.0 mpk iv, read-out: Oral PK % F), the bioavailability amounted to 100%.

Source of the values: US11358954B2, “PPAR agonists, compounds, pharmaceutical compositions, and methods of use thereof” (Mitobridge, Inc., priority 2016, dated 2022).
